# ChEMBL document CHEMBL1128726, “N-substituted oxazolo[5,4-b]pyridin-2(1H)-ones: a new class of non-opiate antinociceptive agents” (J Med Chem, 1995)
# Active and inactive are the calls of the source.
# What was measured:
# Mus musculus [1] = test: Inhibition of phenylquinone induced writhing in mice following 50 mg/kg p.o.; assay type: functional; conditions: route oral
# Mus musculus [2] = species on record: Mus musculus; test: Analgesic activity against phenylquinone induced writhing in mice compared to that of aspirin.; assay type: functional
# Rattus norvegicus [3] = species on record: Rattus norvegicus; test: Analgesic activity against acetic acid-induced writhing in the rat compared to that of aspirin.; assay type: functional
# Mus musculus [4] = species on record: Mus musculus; test: Antinociceptive potency against phenylquinone (PBQ)-induced writhing in mice (8 mice/dose); assay type: functional
# Rattus norvegicus [5] = test: Inhibition of acetic acid induced writhing in rat following 50 mg/kg p.o.; assay type: functional; conditions: route oral
# Rattus norvegicus [6] = species on record: Rattus norvegicus; test: Antinociceptive potency against acetic acid -induced writhing in rat (8 rats/dose); assay type: functional
# Mus musculus [7] = test: Analgesic activity was evaluated in mice (10 mice/dose)by tail clip assay and expressed as number of protected animals upon total. Total tested was determined at 5 mg/kg p.o. dose; 5/10; assay type: functional, organism-based; parameters: dose 5 mg/kg
# Mus musculus [8] = test: Analgesic activity was evaluated in mice by hot plate assay and percent change in foot licking latency was determined at 16 mg/kg i.p. dose; assay type: functional; conditions: route intraperitoneal
# Mus musculus [9] = test: Analgesic activity was evaluated in mice by hot plate assay and percent change in foot licking latency was determined at 32 mg/kg i.p. dose. p<0.05; assay type: functional; conditions: route intraperitoneal
# Rattus norvegicus [10] = test: Antiinflammatory activity was evaluated by carrageenan induced rat paw edema (6 rats/ dose) at peroral dose of 100 mg/kg by inhibition of Prostaglandin E2 (PGE2).; assay type: functional; conditions: route oral
# Mus musculus [11] = test: Mortality threshold doses was determined from orientative acute toxicity Irwin test (3 mice/dose) by peroral administration; assay type: organism-based; conditions: in vivo, po
# Rattus norvegicus [12] = test: Antiinflammatory activity was evaluated by carrageenan induced rat paw edema (6 rats/ dose) at peroral dose of 100 mg/kg by inhibition of leukotriene B4 (LTB4) synthesis.; assay type: functional; conditions: route oral
# Rattus norvegicus [13] = test: Antiinflammatory activity was evaluated by carrageenan induced rat paw edema volume was determined.; assay type: functional
# Rattus norvegicus [14] = test: % inhibition of acetic acid-induced writhing in rat at 30 mg/kg peroral dose, 30 min postdose(5 rats per compound at each time); assay type: functional; conditions: 0.5 h, route oral
# Rattus norvegicus [15] = test: % inhibition of acetic acid-induced writhing in rat at 30 mg/kg peroral dose, 120 min postdose(5 rats per compound at each time); assay type: functional; conditions: 2 h, route oral
# Rattus norvegicus [16] = test: % inhibition of acetic acid-induced writhing in rat at 30 mg/kg peroral dose, 180 min postdose(5 rats per compound at each time); assay type: functional; conditions: 3 h, route oral
# Rattus norvegicus [17] = test: % inhibition of acetic acid-induced writhing in rat at 30 mg/kg peroral dose, 60 min postdose(5 rats per compound at each time); assay type: functional; conditions: 1 h, route oral
# Rattus norvegicus [18] = test: % inhibition of acetic acid-induced writhing in rat at 30 mg/kg peroral dose, 15 min postdose(5 rats per compound at each time); assay type: functional; conditions: 0.25 h, route oral
# Rattus norvegicus [19] = test: % inhibition of acetic acid-induced writhing in rat at 30 mg/kg peroral dose, 360 min postdose(5 rats per compound at each time); assay type: functional; conditions: 6 h, route oral
Structure (SMILES),inhibition in vivo at 50 mg/kg (Mus musculus [1]) [%],Activity ratio (Mus musculus [2]),Activity ratio (Rattus norvegicus [3]),ED50 (Mus musculus [4]) [mg/kg],inhibition in vivo at 50 mg/kg (Rattus norvegicus [5]) [%],ED50 (Rattus norvegicus [6]) [mg/kg],also measured
O=c1oc2ncccc2n1CCCCN1CCN(c2ccccc2)CC1,91,1.3,1.4,27,96,13.6,–
CN1CC[C@]23c4c5ccc(O)c4O[C@H]2[C@@H](O)C=C[C@H]3[C@H]1C5.CN1CC[C@]23c4c5ccc(O)c4O[C@H]2[C@@H](O)C=C[C@H]3[C@H]1C5.O=S(=O)(O)O,–,–,–,–,–,–,No. of protected animals/total (Mus musculus [7]): Partially active; Change in foot-licking latency (Mus musculus [8]): 283%
O=c1oc2ncccc2n1CCCN1CCN(c2cccc3ccccc23)CC1,44,0.9,0,–,0,–,–
O=c1oc2ncccc2n1CCCN1CCOCC1,48,0.9,0,–,0,–,–
CC(CN1CCN(c2ccc(F)cc2)CC1)Cn1c(=O)oc2ncccc21 (stereo unspecified),99,1.4,1.6,24.6,100,20.5,–
COc1ccc(N2CCN(CCCn3c(=O)oc4ncccc43)CC2)cc1,35,0.7,0.2,–,14,–,–
O=c1oc2ncccc2n1CCCN1CCN(c2ccccc2)CC1,98,1.4,1.3,12.7,92,3.3,Change in foot-licking latency (Mus musculus [9]): 30%; inhibition in vivo at 100 mg/kg (Rattus norvegicus [10]): 5%; Mortality threshold (Mus musculus [11]): > 1024 mg/kg; inhibition in vivo at 100 mg/kg (Rattus norvegicus [12]): 35%; Change in volume (Rattus norvegicus [13]): -20%
COc1ccccc1N1CCN(CCn2c(=O)oc3ncccc32)CC1,52,0.8,0.8,–,53,–,–
O=c1oc2ncccc2n1CCN1CCC(c2ccccc2)CC1,9,0.1,0.7,–,50,–,–
O=c1oc2ncccc2n1CCN1CCN(c2ccccc2)CC1,–,–,–,25,74,13.6,–
CC(=O)Oc1ccccc1C(=O)O [ASPIRIN],–,–,–,63,–,32,inhibition in vivo at 30 mg/kg (Rattus norvegicus [14]): 37%; inhibition in vivo at 30 mg/kg (Rattus norvegicus [15]): 26%; inhibition in vivo at 30 mg/kg (Rattus norvegicus [16]): 18%; inhibition in vivo at 30 mg/kg (Rattus norvegicus [17]): 60%; inhibition in vivo at 30 mg/kg (Rattus norvegicus [18]): 53%; inhibition in vivo at 30 mg/kg (Rattus norvegicus [19]): 0%
O=c1oc2ncccc2n1CCCN1CCN(Cc2ccccc2)CC1,14,0.3,0.2,–,12,–,–
O=c1oc2ncccc2n1CCN1CCN(c2ccc(F)cc2)CC1,83,1.2,1.2,6.7,85,3.6,–
